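Where inhibition never reached the appropriate level, the endpoint shown equals the highest concentration tested. Otherwise, values were interpolated linearly from a five-concentration, 48-hour dose response in 96-well plates. The concentration for 50% growth inhibition is given as GI50. TGI: concentration producing complete growth inhibition.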
Experiments:
Experiment in all cases: NCI anticancer screen, dose series, 48 h
SK-MEL-5 melanoma = test system: SK-MEL-5 melanoma
TK-10 renal = test system: TK-10 renal
A498 renal = test system: A498 renal
A549 NSCLC = test system: A549 NSCLC
SR leukemia = test system: SR leukemia
OVCAR-8 ovarian = test system: OVCAR-8 ovarian
HCT-116 colon = test system: HCT-116 colon

Row | Structure (SMILES) | GI50 (SK-MEL-5 melanoma) [µM] | TGI (SK-MEL-5 melanoma) [µM] | GI50 (TK-10 renal) [µM] | TGI (TK-10 renal) [µM] | GI50 (A498 renal) [µM] | TGI (A498 renal) [µM] | GI50 (A549 NSCLC) [µM] | TGI (A549 NSCLC) [µM] | GI50 (SR leukemia) [µM] | TGI (SR leukemia) [µM] | GI50 (OVCAR-8 ovarian) [µM] | TGI (OVCAR-8 ovarian) [µM] | GI50 (HCT-116 colon) [µM] | TGI (HCT-116 colon) [µM]
1 | COC(=O)C(C)NP(=O)(OCc1ccc(Cn2cnc3c(=O)[nH]c(N)nc32)cc1)Oc1ccccc1 (centres undefined) | > 100 | > 100 | > 100 | > 100 | > 100 | > 100 | > 100 | > 100 | > 100 | > 100 | > 100 | > 100 | > 100 | > 100
2 | NC1=C(Cl)C(=O)c2ccc(S(N)(=O)=O)cc2C1=O | 0.0304 | 0.0963 | 1.56 | 2.95 | 0.507 | 1.3 | 0.16 | 0.358 | 0.262 | 0.606 | 0.273 | 0.977 | 0.224 | 0.602
3 | O=[N+]([O-])c1cc(CCl)ccc1CCl | – | 11.5 | – | 8.23 | – | 16.1 | – | 16.9 | – | 5.17 | – | 7.17 | – | 3.26
4 | COc1ccc(-c2cnc3ccnn3c2-c2cc(OC)c(OC)c(OC)c2)cc1 | 4.53 | > 100 | 27.3 | > 100 | 0.293 | 4.47 | 3.85 | > 100 | 1.66 | > 100 | 7.25 | > 100 | 2.97 | > 100
5 | S=c1nc2[nH]ncc2c(N/N=C/c2ccccc2)[nH]1 | 41.3 | > 100 | > 100 | > 100 | 15.3 | 73.4 | 98.3 | > 100 | > 100 | > 100 | > 100 | > 100 | 87.9 | > 100
6 | C=C1C(=O)O[C@H]2[C@H]1CC/C(COC(=O)CCCCCCCCC(=O)OC/C1=C/CC[C@@]3(C)O[C@H]3[C@H]3OC(=O)C(=C)[C@@H]3CC1)=C\CC[C@@]1(C)O[C@@H]21 | 1.91 | 3.48 | 2.47 | 4.74 | 5.82 | 18 | 6.63 | 22.1 | 1.39 | 11 | 3.07 | 8.1 | – | –
7 | NC(CNO)C(=O)O (centres undefined) | – | > 100 | – | > 100 | – | > 100 | – | > 100 | – | – | – | > 100 | – | > 100
8 | O=C(Nc1ccccc1)Nc1cccc(-n2cc(-c3ccncc3)c(-c3ccc(O)c(Cl)c3)n2)c1 | 1.78 | 3.35 | 6.91 | 54.6 | 2.5 | 8.37 | 3.64 | > 100 | 2.35 | 6.29 | 3.27 | 21 | 3.41 | 13.9
9 | c1cc(OCCN2CCCCCC2)ccc1CNc1ccc2nc(CCC3CCCCC3)[nH]c2c1 | 1.74 | 3.17 | 3.18 | 10.9 | 1.94 | 4.95 | 3.05 | 11 | 1.73 | 5.34 | 2.27 | 6.34 | 1.62 | 3.14
10 | Cn1ncc2c(/N=C/c3cccs3)[nH]c(=S)nc21 | 17.9 | 39.9 | 40.6 | > 85.2 | 0.689 | 27.5 | 47.4 | > 100 | – | – | 57.5 | > 100 | 33.9 | 98
11 | Cn1cccc1-c1cc(-c2cccs2)[nH]c(=O)c1C#N | > 100 | > 100 | > 100 | > 100 | 17.9 | > 100 | > 100 | > 100 | > 100 | > 100 | > 100 | > 100 | > 100 | > 100
12 | COc1ccc(/C=C2\CN(Cc3cn(CCCNc4ccnc5cc(Cl)ccc45)nn3)C/C(=C\c3ccc(OC)c(OC)c3)C2=O)cc1OC | 2.71 | 10.2 | 2.95 | 7.92 | 1.17 | 2.58 | 1.71 | 4.11 | 0.382 | 12 | 0.81 | 15.4 | 0.577 | 2.1
13 | CN[C@]12CC3(C=CC(=O)C=C3)O[C@@]1(Cc1ccc(OC)cc1)N(C)C(=O)N2 | 1.65 | 3.15 | 2.48 | 6.72 | 16.2 | 31.6 | 3.11 | 14 | 1.15 | 20.1 | 2.53 | 21.3 | 0.812 | 7.98
14 | CCN(CC)CCOc1ccc(/C(=C(\C)Cc2ccc(OC)cc2)c2ccc(OC(=O)NCc3ccccc3)cc2)cc1 | 1.75 | 3.16 | 2.68 | 6.77 | 4.3 | 17.7 | 2.15 | 4.7 | 1.99 | 4.31 | 2.38 | 5.69 | 1.57 | 2.97
15 | COc1ccc(/C(C)=C(\c2ccc(Cl)cc2)c2ccc(OCCN3CCCC3)cc2)cc1F | 4.1 | 7.78 | 3.58 | 8.13 | – | – | 3.01 | 7.01 | 1.18 | 6.47 | 4.22 | 9.68 | 2.05 | 5.64
16 | CN1CCC[C@@H]1CCO[C@](C)(c1ccccc1)c1ccc(Cl)cc1 | 1.54 | 2.89 | 10.7 | 23.3 | 10.7 | 23 | 7.92 | 21.7 | 2.32 | 9.59 | 10.8 | 24.7 | 3.62 | 13.7
17 | C/C(CC(=O)NNc1ccc([N+](=O)[O-])cc1)=N\Nc1ccc([N+](=O)[O-])cc1 | 2.13 | 5.42 | 13.4 | 35 | 7.84 | 47.2 | 5.42 | > 100 | – | – | 14.2 | 38.1 | 6.04 | 28.3
18 | CCOC(=O)c1c(-c2ccccc2)[n+](=O)c2ccc(Cl)cc2n1[O-] | 1.63 | 3.33 | 4.55 | 23.6 | 12.7 | 26.2 | 8.46 | 20.6 | 2.59 | 11 | 4.46 | 16.8 | 3.72 | 16.4
19 | COc1ccc(-c2nn(-c3cccc(NC(=O)Nc4ccc(Cl)c(C(F)(F)F)c4)c3)cc2-c2ccncc2)cc1Cl | 1.69 | 3.61 | 4.8 | 92.2 | 2.4 | 8.01 | 1.98 | > 100 | 1.82 | 5.65 | 2.43 | 13.1 | 2.02 | 8.6

Row | Structure (SMILES) | GI50 (SK-MEL-5 melanoma) [µM] | TGI (SK-MEL-5 melanoma) [µM] | GI50 (TK-10 renal) [µM] | TGI (TK-10 renal) [µM] | GI50 (A498 renal) [µM] | TGI (A498 renal) [µM] | GI50 (A549 NSCLC) [µM] | TGI (A549 NSCLC) [µM] | GI50 (SR leukemia) [µM] | TGI (SR leukemia) [µM] | GI50 (OVCAR-8 ovarian) [µM] | TGI (OVCAR-8 ovarian) [µM] | GI50 (HCT-116 colon) [µM] | TGI (HCT-116 colon) [µM]
20 | O=C(Nc1nccs1)c1cc2c(cc1Cl)Sc1nccn1S2(=O)=O | 16.5 | 30 | 18.9 | 34.4 | 19.2 | 34.8 | 23.8 | 63.4 | 3 | 11.9 | 17.2 | 37.1 | 16.1 | 29.5
21 | COc1ccc2c(c1)CCc1c(-c3noc4c3CCc3cc(OC)ccc3-4)noc1-2 | – | > 100 | – | > 100 | – | > 100 | – | > 100 | – | > 100 | – | > 100 | – | > 100
22 | ClCc1ccc(-c2ccc(Cn3cnc4c(Cl)nc(Cl)nc43)cc2)cc1 | 2.75 | 12.3 | 2.11 | 4.42 | 2.33 | 11.4 | 1.73 | 3.59 | 1.9 | 6.43 | – | – | 1.58 | 2.92
23 | C=C1C(=O)O[C@H]2[C@H]1CC/C(Cn1cc(Cn3ccc4ccccc43)nn1)=C\CC[C@@]1(C)O[C@@H]21 | 1.97 | 4.38 | 1.65 | 3.05 | 4.3 | 16.6 | 13.1 | 27.4 | 0.345 | 3.71 | 2.73 | 8.22 | 0.762 | 2.15
24 | N#CC(=S)Nc1ccc(Cl)c(Cl)c1 | – | > 51.3 | – | > 84.6 | – | 51.8 | – | > 100 | – | 67.4 | – | > 87.1 | – | > 50
25 | Cc1cc(C)c(O)c(Cc2cccc(Cc3cc(C)cc(C)c3O)c2O)c1 | – | > 100 | – | > 100 | – | > 100 | – | > 100 | – | > 100 | – | > 100 | – | > 100
26 | COc1ccc(-c2cc(=O)c3c(OC)c(OC)c(OC)c(OC)c3o2)cc1OC | – | > 100 | – | > 100 | – | > 100 | – | > 100 | – | > 100 | – | > 100 | – | > 100
27 | Cc1ccc(S(=O)(=O)/N=c2\ssc(Nc3ccccc3)c2Cl)cc1 | 6.2 | 12.4 | 8.21 | 22.8 | – | – | 14.6 | > 50 | 9.06 | 25.1 | 16.5 | > 50 | – | –
28 | CCOC(=O)/C(=C/c1ccc([N+](=O)[O-])cc1)C(=O)c1ccccc1 | 1.94 | 3.62 | 2.27 | 6.54 | 2.33 | 5.37 | 6.28 | 20.6 | 2.85 | > 100 | 3.73 | 12 | 2.33 | 5.3
29 | COc1cc(/C=C2\CN(C)C/C(=C\c3cc(OC)c(OC)c(OC)c3)C2=O)cc(OC)c1OC | 0.204 | 0.434 | 0.247 | 0.771 | 0.447 | 1.59 | 0.37 | 1.59 | 0.24 | 1.41 | 0.312 | 75.7 | 0.154 | 0.335
30 | O=C1N=C(c2ccccc2)OC1C(=O)c1ccccc1 (centres undefined) | – | > 100 | – | > 100 | – | > 100 | – | > 100 | – | > 100 | – | > 100 | – | > 100
31 | Oc1ccc(CNCc2ccccc2)c2cccnc12 | – | – | – | – | – | > 100 | – | > 100 | – | > 100 | – | > 100 | – | > 100
32 | COc1ccc(N(CC(=O)NCCC[Te]c2ccccc2)C(=O)CCSC2=C(C)C(=O)c3ccccc3C2=O)cc1 | 1.56 | 2.96 | 3.25 | 8.01 | 1.96 | 4.61 | 0.302 | 1.07 | 0.498 | > 100 | 0.722 | 6.06 | 0.406 | 1.72
33 | COc1cc(/C=C/C(=O)c2ccc(Nc3ncnc4ccccc34)cc2)cc(OC)c1 | – | – | 8.4 | 24.4 | 5.86 | > 100 | 3.2 | 14.4 | 0.556 | 3.17 | 3.68 | 17.1 | 0.346 | 1.17
34 | O=C(Nc1n[nH]c2nc(-c3ccco3)ccc12)C1CC1 | > 25 | > 25 | > 25 | > 25 | > 25 | > 25 | > 25 | > 25 | – | – | > 25 | > 25 | > 25 | > 25
35 | Cc1cc(O)c(C(c2cccnc2)c2c(O)cc(C)[nH]c2=O)c(=O)[nH]1 | – | > 100 | – | > 100 | – | – | – | > 100 | – | > 100 | – | > 100 | – | > 100
36 | O=C(O)c1ccc2c(c1Nc1ccccc1)C(=O)c1ccccc1C2=O | 73.1 | > 100 | 98.5 | > 100 | – | – | 51.2 | > 100 | 41 | > 100 | 72.6 | > 100 | 26.6 | > 100
37 | Cc1c2c(nn1C(=O)c1nn(-c3ccc(Cl)cc3)cc1O)-c1ccccc1CC2 | 0.313 | – | 0.0429 | > 100 | 0.0181 | 0.0612 | 0.0343 | > 100 | – | – | 0.0523 | > 100 | 0.0339 | > 100
38 | CC#CS(=O)(=O)c1ccccc1 | – | 15.4 | – | 17.4 | – | 29.3 | – | 31.4 | – | – | – | 12.5 | – | 17.6

Reference: PubChem BioAssay (NCI)
